US11459318B2, “Pesticidally active pyrrole derivatives” (Syngenta Participations AG, priority 2017, dated 2022)

How the values were obtained:
Assay type in all cases: in vivo
[1] = system: Spodoptera littoralis (Egyptian cotton leaf worm); test: Spodoptera littoralis (Egyptian cotton leaf worm): Feeding/contact activity; conditions: foliar, 72 h, application rate of 200 ppm, L1 larvae on cotton leaf discs, assessed 3 days after infestation, read-out: control (mortality)
Protocol: Spodoptera littoralis (Egyptian cotton leaf worm): Feeding/contact activity Cotton leaf discs were placed onto agar in 24-well microtiter plates and sprayed with aqueous test solutions prepared from 10,000 ppm DMSO stock solutions. After drying the leaf discs were infested with five L1 larvae. The samples were assessed for mortality 3 days after infestation.

[2] = system: Plutella xylostella (Diamond back moth); test: Plutella xylostella (Diamond back moth): Feeding/contact activity; conditions: 120 h, application rate of 200 ppm, L2 larvae on artificial diet, assessed 5 days after infestation, read-out: control (mortality)
Protocol: Plutella xylostella (Diamond back moth): Feeding/contact activity
24-well microtiter plates with artificial diet were treated with aqueous test solutions prepared from 10,000 ppm DMSO stock solutions by pipetting. After drying, the plates were infested with L2 larvae (10 to 15 per well). The samples were assessed for mortality 5 days after infestation.

[3] = system: Diabrotica balteata (Corn root worm); test: Diabrotica balteata (Corn root worm), maize sprouts sprayed, L2 larvae mortality; conditions: 96 h, application rate of 200 ppm, L2 larvae on maize sprouts, assessed 4 days after infestation, read-out: control (mortality)
Protocol: Diabrotica balteata (Corn root worm):
Maize sprouts placed onto an agar layer in 24-well microtiter plates were treated with aqueous test solutions prepared from 10,000 ppm DMSO stock solutions by spraying. After drying, the plates were infested with L2 larvae (6 to 10 per well). The samples were assessed for mortality 4 days after infestation.

[4] = system: Euschistus heros (Neotropical Brown Stink Bug); test: Euschistus heros (Neotropical Brown Stink Bug): Feeding/contact activity; conditions: 120 h, application rate of 200 ppm, N2 nymphs on soybean leaves, assessed 5 days after infestation, read-out: control (mortality)
Protocol: Euschistus heros (Neotropical Brown Stink Bug): Feeding/contact activity Soybean leaves on agar in 24-well microtiter plates were sprayed with aqueous test solutions prepared from 10,000 ppm DMSO stock solutions. After drying the leaves were infested with N2 nymphs. The samples were assessed for mortality 5 days after infestation.

[5] = system: Tetranychus urticae (Two-spotted spider mite); test: Tetranychus urticae (Two-spotted spider mite): Feeding/contact activity; conditions: foliar, 192 h, application rate of 200 ppm, mite population of mixed ages (mobile stages) on bean leaf discs, assessed 8 days after infestation, read-out: control (mortality)
Protocol: Tetranychus urticae (Two-spotted spider mite): Feeding/contact activity
Bean leaf discs on agar in 24-well microtiter plates were sprayed with aqueous test solutions prepared from 10,000 ppm DMSO stock solutions. After drying the leaf discs were infested with a mite population of mixed ages. The samples were assessed for mortality on mixed population (mobile stages) 8 days after infestation.

[6] = system: Myzus persicae (Green peach aphid); test: Myzus persicae (Green peach aphid): Feeding/Contact activity; conditions: foliar, 144 h, application rate of 200 ppm, aphid population of mixed ages on sunflower leaf discs, assessed 6 days after infestation, read-out: control (mortality)
Protocol: Myzus persicae (Green peach aphid): Feeding/Contact activity Sunflower leaf discs were placed onto agar in a 24-well microtiter plate and sprayed with aqueous test solutions prepared from 10,000 ppm DMSO stock solutions. After drying, the leaf discs were infested with an aphid population of mixed ages. The samples were assessed for mortality 6 days after infestation.

[7] = system: Thrips tabaci (Onion Thrips); test: Thrips tabaci (Onion Thrips): Feeding/Contact activity; conditions: foliar, 144 h, application rate of 200 ppm, thrips population of mixed ages on sunflower leaf discs, assessed 6 days after infestation, read-out: control (mortality)
Protocol: Thrips tabaci (Onion Thrips): Feeding/Contact activity
Sunflower leaf discs were placed on agar in 24-well microtiter plates and sprayed with aqueous test solutions prepared from 10,000 ppm DMSO stock solutions. After drying the leaf discs were infested with a thrips population of mixed ages. The samples were assessed for mortality 6 days after infestation.

Measured: mortality at 200 ppm

COCn1c(C(F)(C(F)(F)F)C(F)(F)F)cc(Br)c1-n1cc(-c2ccc(Cl)c(C(=O)NC3(C#N)CC3)c2)cn1 [Compound 14, 5-[1-[3-bromo-1-(methoxymethyl)-5-[1,2,2,2-tetrafluoro-1-(trifluoromethyl)ethyl]pyrrol-2-yl]pyrazol-4-yl]-2-chloro-N-(1-cyanocyclopropyl)benzamide]
not listed: [7]
≥ 80%: all other assays above

CCN(C(=O)c1cc(-c2cnn(-c3c(Br)cc(C(F)(C(F)(F)F)C(F)(F)F)n3C)c2)ccc1Cl)C1CC1 [Compound 22, 5-[1-[3-bromo-1-methyl-5-[1,2,2,2-tetrafluoro-1-(trifluoromethyl)ethyl]pyrrol-2-yl]pyrazol-4-yl]-2-chloro-N-cyclopropyl-N-ethyl-benzamide]
not listed: [7]
≥ 80%: all other assays above

CCN(C(=O)c1cc(-c2cnn(-c3c(Br)cc(C(F)(C(F)(F)F)C(F)(F)F)n3C)c2)ccc1Cl)C1(C#N)CC1 [Compound 20, 5-[1-[3-bromo-1-methyl-5-[1,2,2,2-tetrafluoro-1-(trifluoromethyl)ethyl]pyrrol-2-yl]pyrazol-4-yl]-2-chloro-N-(1-cyanocyclopropyl)-N-ethyl-benzamide]
≥ 80%: all assays above

Cn1c(C(F)(C(F)(F)F)C(F)(F)F)cc(I)c1-n1cc(-c2ccc(Cl)c(C(=O)NC3(C#N)CC3)c2)cn1 [Compound 34, 2-chloro-N-(1-cyanocyclopropyl)-5-[1-[3-iodo-1-methyl-5-[1,2,2,2-tetrafluoro-1-(trifluoromethyl)ethyl]pyrrol-2-yl]pyrazol-4-yl]benzamide]
not listed: [6]
≥ 80%: all other assays above

Cn1c(-n2cc(-c3ccc(Cl)c(C(=O)NC4(C#N)CC4)c3)cn2)ccc1C(F)(C(F)(F)F)C(F)(F)F [Compound 1, 2-chloro-N-(1-cyanocyclopropyl)-5-[1-[1-methyl-5-[1,2,2,2-tetrafluoro-1-(trifluoromethyl)ethyl]pyrrol-2-yl]pyrazol-4-yl]benzamide]
not listed: [7]
≥ 80%: all other assays above

Cc1cc(C(F)(C(F)(F)F)C(F)(F)F)n(C)c1-n1cc(-c2ccc(Cl)c(C(=O)NC3(C#N)CC3)c2)cn1 [Compound 11, 2-chloro-N-(1-cyanocyclopropyl)-5-[1-[1,3-dimethyl-5-[1,2,2,2-tetrafluoro-1-(trifluoromethyl)ethyl]pyrrol-2-yl]pyrazol-4-yl]benzamide]
not listed: [6]
≥ 80%: all other assays above

CN(C(=O)c1cc(-c2cnn(-c3c(Br)cc(C(F)(C(F)(F)F)C(F)(F)F)n3C)c2)ccc1Cl)C1CC1 [Compound 4, 5-[1-[3-bromo-1-methyl-5-[1,2,2,2-tetrafluoro-1-(trifluoromethyl)ethyl]pyrrol-2-yl]pyrazol-4-yl]-2-chloro-N-cyclopropyl-N-methyl-benzamide]
not listed: [7]
≥ 80%: all other assays above

Cn1c(SC(F)(F)F)c(Br)c(Br)c1-n1cc(-c2ccc(Cl)c(C(=O)NC3(C#N)CC3)c2)cn1 [Compound 16, 2-chloro-N-(1-cyanocyclopropyl)-5-[1-[3,4-dibromo-1-methyl-5-(trifluoromethylsulfanyl)pyrrol-2-yl]pyrazol-4-yl]benzamide]
not listed: [4] | [6]
≥ 80%: all other assays above

Cn1c(C(F)(c2cc(Cl)cc(Cl)c2)C(F)(F)F)cc(Cl)c1-n1cc(-c2ccc(Cl)c(C(=O)NC3(C#N)CC3)c2)cn1 (stereo not drawn) [Compound 30, 2-chloro-5-[1-[3-chloro-5-[1-(3,5-dichlorophenyl)-1,2,2,2-tetrafluoro-ethyl]-1-methyl-pyrrol-2-yl]pyrazol-4-yl]-N-(1-cyanocyclopropyl)benzamide]
not listed: [5] | [6]
≥ 80%: all other assays above

Cn1c(C(F)(C(F)(F)F)C(F)(F)F)cc(C(F)(F)F)c1-n1cc(-c2ccc(Cl)c(C(=O)NC3(C#N)CC3)c2)cn1 [Compound 8, 2-chloro-N-(1-cyanocyclopropyl)-5-[1-[1-methyl-5-[1,2,2,2-tetrafluoro-1-(trifluoromethyl)ethyl]-3-(trifluoromethyl)pyrrol-2-yl]pyrazol-4-yl]benzamide]
not listed: [5] | [6]
≥ 80%: all other assays above

Cn1c(C(F)(C(F)(F)F)C(F)(F)F)cc(C(N)=S)c1-n1cc(-c2ccc(Cl)c(C(=O)NC3(C#N)CC3)c2)cn1 [Compound 23, 5-[1-[3-carbamothioyl-1-methyl-5-[1,2,2,2-tetrafluoro-1-(trifluoromethyl)ethyl]pyrrol-2-yl]pyrazol-4-yl]-2-chloro-N-(1-cyanocyclopropyl)benzamide]
not listed: [7]
≥ 80%: all other assays above

Cn1c(C(F)(c2cc(F)cc(F)c2)C(F)(F)F)cc(Br)c1-n1cc(-c2ccc(Cl)c(C(=O)NC3(C#N)CC3)c2)cn1 (stereo not drawn) [Compound 17, 5-[1-[3-bromo-5-[1-(3,5-difluorophenyl)-1,2,2,2-tetrafluoro-ethyl]-1-methyl-pyrrol-2-yl]pyrazol-4-yl]-2-chloro-N-(1-cyanocyclopropyl)benzamide]
not listed: [4] | [6]
≥ 80%: all other assays above

Cn1c(C(F)(C(F)(F)F)C(F)(F)F)cc(Br)c1-c1cc(-c2ccc(Cl)c(C(=O)NC3(C#N)CC3)c2)on1 [Compound 6, 5-[3-[3-bromo-1-methyl-5-[1,2,2,2-tetrafluoro-1-(trifluoromethyl)ethyl]pyrrol-2-yl]isoxazol-5-yl]-2-chloro-N-(1-cyanocyclopropyl)benzamide]
not listed: [7]
≥ 80%: all other assays above
